Source: patent publication US9527867B2, “Antibacterial biaromatic derivatives” (Actelion Pharmaceuticals Ltd., priority 2013, dated 2016)
≈ marks a conversion by molar mass, not a printed value.

Legend:
Test in all cases: Bacterial growth minimal inhibitory concentration (broth microdilution, CLSI M7-A7)
Format in all cases: cell-based
[1] = test system: Staphylococcus aureus ATCC29213; details: methicillin-sensitive and quinolone-sensitive strain; for MIC: Staphylococcus aureus, ATCC29213, cation-adjusted Mueller-Hinton Broth, read-out: MIC for S. aureus ATCC29213
In short: (§1)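 Broth microdilution after CLSI M7-A7 in cation-adjusted Mueller-Hinton medium gave MIC values in mg/L.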

[2] = test system: Moraxella catarrhalis A894; details: quinolone-sensitive strain; for MIC: Moraxella catarrhalis, A894, cation-adjusted Mueller-Hinton Broth
In short: as §1

[3] = test system: Acinetobacter baumannii T6474; details: multiply-resistant strain (in particular quinolone-resistant); for MIC: Acinetobacter baumannii, T6474, cation-adjusted Mueller-Hinton Broth
In short: as §1

[4] = test system: Enterococcus faecium A949; details: multiply-resistant strain (in particular quinolone-resistant); for MIC: Enterococcus faecium, A949, cation-adjusted Mueller-Hinton Broth, read-out: MIC for E. faecium A949
In short: as §1

[5] = test system: Staphylococcus aureus A798; details: multiply-resistant strain (in particular quinolone-resistant); for MIC: Staphylococcus aureus, A798, cation-adjusted Mueller-Hinton Broth, read-out: MIC for S. aureus A798
In short: as §1

[6] = cation-adjusted Mueller-Hinton Broth

Row | SMILES | MIC for S. aureus ATCC29213 [1, 6] | MIC for M. catarrhalis A894 [2, 6] | MIC for A. baumannii T6474 [3, 6] | MIC for E. faecium A949 [4, 6] | MIC for S. aureus A798 [5, 6] | MIC [1] | MIC [2] | MIC [3] | MIC [4] | MIC [5]
1 | O=C1COc2ccc(N3C[C@H](CCNCc4cccc(-c5cccc(OC[C@@H]6C[C@@H](O)[C@@H](O)C6)n5)c4)OC3=O)nc2N1 (racemic) [Example 69, 6-[(S)-5-(2-{3-[6-((1rs,3R,4S)-3,4-dihydroxy-cyclopentylmethoxy)-pyridin-2-yl]-benzylamino}-ethyl)-2-oxo-oxazolidin-3-yl]-4H-pyrido[3,2-b][1,4]oxazin-3-one] | 1 µg/mL | 0.063 µg/mL | 1 µg/mL | 8 µg/mL | 0.25 µg/mL |  |  |  |  | 
2 | N#Cc1cccc(-c2cccc(CNCC[C@H]3CN(c4ccc5c(n4)NC(=O)CO5)C(=O)O3)c2)c1 [Example 40, 3′-({2-[(S)-2-oxo-3-(3-oxo-3,4-dihydro-2H-pyrido[3,2-b][1,4]oxazin-6-yl)-oxazolidin-5-yl]-ethylamino}-methyl)-biphenyl-3-carbonitrile] |  |  |  |  |  | 0.125 µg/mL (≈ 0.266 µM) | ≤ 0.016 µg/mL | 0.25 µg/mL (≈ 0.532 µM) | 2 µg/mL (≈ 4.26 µM) | 0.125 µg/mL (≈ 0.266 µM)
3 | COc1ccc(C#N)c(-c2cccc(CNCC[C@H]3CN(c4ccc5c(n4)NC(=O)CO5)C(=O)O3)c2)c1 [Example 42, 5-methoxy-3′-({2-[(S)-2-oxo-3-(3-oxo-3,4-dihydro-2H-pyrido[3,2-b][1,4]oxazin-6-yl)-oxazolidin-5-yl]-ethylamino}-methyl)-biphenyl-2-carbonitrile] |  |  |  |  |  | 0.063 µg/mL (≈ 0.126 µM) | ≤ 0.016 µg/mL | 0.5 µg/mL (≈ 1 µM) | 1 µg/mL (≈ 2 µM) | 0.125 µg/mL (≈ 0.25 µM)
4 | COc1ccc(C#N)cc1-c1cccc(CNCC[C@H]2CN(c3ccc4c(n3)NC(=O)CO4)C(=O)O2)c1 [Example 76, 6-methoxy-3′-({2-[(S)-2-oxo-3-(3-oxo-3,4-dihydro-2H-pyrido[3,2-b][1,4]oxazin-6-yl)-oxazolidin-5-yl]-ethylamino}-methyl)-biphenyl-3-carbonitrile] |  |  |  |  |  | 0.5 µg/mL (≈ 1 µM) | ≤ 0.063 µg/mL | 2 µg/mL (≈ 4 µM) | 8 µg/mL (≈ 16 µM) | 1 µg/mL (≈ 2 µM)
5 | COc1cc(-c2cccc(CNCC[C@@H]3CN(c4ccc5c(c4)NC(=O)CS5)C(=O)O3)c2)ncn1 [Example 24, 6-((R)-5-{2-[3-(6-methoxy-pyrimidin-4-yl)-benzylamino]-ethyl}-2-oxo-oxazolidin-3-yl)-4H-benzo[1,4]thiazin-3-one] |  |  |  |  |  | 0.5 µg/mL (≈ 1.02 µM) | 0.063 µg/mL (≈ 0.128 µM) | 1 µg/mL (≈ 2.03 µM) | 4 µg/mL (≈ 8.14 µM) | 0.5 µg/mL (≈ 1.02 µM)
6 | COc1cccc(-c2cccc(CNCC[C@@H]3CN(c4ccc5c(c4)NC(=O)CS5)C(=O)O3)c2)c1 [Example 1, 6-((R)-5-{2-[(3′-methoxy-biphenyl-3-ylmethyl)-amino]-ethyl}-2-oxo-oxazolidin-3-yl)-4H-benzo[1,4]thiazin-3-one] |  |  |  |  |  | 0.25 µg/mL (≈ 0.511 µM) | 0.031 µg/mL (≈ 0.0633 µM) | 0.5 µg/mL (≈ 1.02 µM) | 2 µg/mL (≈ 4.08 µM) | 0.25 µg/mL (≈ 0.511 µM)
7 | COc1cc(-c2cccc(CNCC[C@@H]3CN(c4ccc5c(c4)NC(=O)CS5)C(=O)O3)c2)ccc1O [Example 7, 6-((R)-5-{2-[(4′-hydroxy-3′-methoxy-biphenyl-3-ylmethyl)-amino]-ethyl}-2-oxo-oxazolidin-3-yl)-4H-benzo[1,4]thiazin-3-one] |  |  |  |  |  | 0.5 µg/mL (≈ 0.989 µM) | 0.063 µg/mL (≈ 0.125 µM) | 1 µg/mL (≈ 1.98 µM) | 4 µg/mL (≈ 7.91 µM) | 0.5 µg/mL (≈ 0.989 µM)
8 | N#Cc1cccc(-c2cccc(CNCC[C@H]3CN(c4ccc5c(n4)NC(=O)CS5)C(=O)O3)c2O)n1 [Example 94, 6-[2-hydroxy-3-({2-[(S)-2-oxo-3-(3-oxo-3,4-dihydro-2H-pyrido[3,2-b][1,4]thiazin-6-yl)-oxazolidin-5-yl]-ethylamino}-methyl)-phenyl]-pyridine-2-carbonitrile] |  |  |  |  |  | ≤ 0.016 µg/mL | ≤ 0.016 µg/mL | 0.031 µg/mL (≈ 0.0617 µM) | 0.125 µg/mL (≈ 0.249 µM) | ≤ 0.016 µg/mL
9 | COc1cnnc(-c2cccc(CNCC[C@@H]3CN(c4ccc5c(n4)NC(=O)CO5)C(=O)O3)c2)c1 [Example 97, 6-((R)-5-{2-[3-(5-methoxy-pyridazin-3-yl)-benzylamino]-ethyl}-2-oxo-oxazolidin-3-yl)-4H-pyrido[3,2-b][1,4]oxazin-3-one] |  |  |  |  |  | 0.25 µg/mL (≈ 0.525 µM) | 0.031 µg/mL (≈ 0.0651 µM) | 0.25 µg/mL (≈ 0.525 µM) | 8 µg/mL (≈ 16.8 µM) | 0.25 µg/mL (≈ 0.525 µM)
10 | N#Cc1cccc(-c2cccc(CNCC[C@H]3CN(c4ccc5c(c4)NC(=O)CO5)C(=O)O3)c2O)n1 [Example 88, 6-[2-hydroxy-3-({2-[(S)-2-oxo-3-(3-oxo-3,4-dihydro-2H-benzo[1,4]oxazin-6-yl)-oxazolidin-5-yl]-ethylamino}-methyl)-phenyl]-pyridine-2-carbonitrile] |  |  |  |  |  | 0.125 µg/mL (≈ 0.257 µM) | ≤ 0.016 µg/mL | 0.25 µg/mL (≈ 0.515 µM) | 4 µg/mL (≈ 8.24 µM) | 0.25 µg/mL (≈ 0.515 µM)
11 | COc1ccc(C#N)c(-c2cccc(CNCCc3cn(-c4ccc5c(n4)NC(=O)CO5)c(=O)o3)c2)c1 [Example 37, 5-methoxy-3′-({2-[2-oxo-3-(3-oxo-3,4-dihydro-2H-pyrido[3,2-b][1,4]oxazin-6-yl)-2,3-dihydro-oxazol-5-yl]-ethylamino}-methyl)-biphenyl-2-carbonitrile] |  |  |  |  |  | 0.063 µg/mL (≈ 0.127 µM) | ≤ 0.016 µg/mL | 0.25 µg/mL (≈ 0.503 µM) | 1 µg/mL (≈ 2.01 µM) | 0.063 µg/mL (≈ 0.127 µM)
12 | COc1ccc(C#N)c(-c2cccc(CNCC[C@@H]3CN(c4ccc5c(c4)NC(=O)CS5)C(=O)O3)c2)c1 [Example 8, 5-methoxy-3′-({2-[(R)-2-oxo-3-(3-oxo-3,4-dihydro-2H-benzo[1,4]thiazin-6-yl)-oxazolidin-5-yl]-ethylamino}-methyl)-biphenyl-2-carbonitrile] |  |  |  |  |  | 0.063 µg/mL (≈ 0.122 µM) | ≤ 0.016 µg/mL | 0.25 µg/mL (≈ 0.486 µM) | 1 µg/mL (≈ 1.94 µM) | 0.063 µg/mL (≈ 0.122 µM)
13 | N#Cc1cc(-c2cccc(CNCC[C@H]3CN(c4ccc5c(n4)NC(=O)CO5)C(=O)O3)c2)cnn1 [Example 60, 5-[3-({2-[(S)-2-oxo-3-(3-oxo-3,4-dihydro-2H-pyrido[3,2-b][1,4]oxazin-6-yl)-oxazolidin-5-yl]-ethylamino}-methyl)-phenyl]-pyridazine-3-carbonitrile] |  |  |  |  |  | 2 µg/mL (≈ 4.24 µM) | 0.063 µg/mL (≈ 0.134 µM) | 1 µg/mL (≈ 2.12 µM) | > 8 µg/mL | 4 µg/mL (≈ 8.48 µM)
14 | COc1cc(-c2cccc(CNCC[C@H]3CN(c4ccc5c(n4)NC(=O)CO5)C(=O)O3)c2)ccc1C#N [Example 75, 3-methoxy-3′-({2-[(S)-2-oxo-3-(3-oxo-3,4-dihydro-2H-pyrido[3,2-b][1,4]oxazin-6-yl)-oxazolidin-5-yl]-ethylamino}-methyl)-biphenyl-4-carbonitrile] |  |  |  |  |  | 0.5 µg/mL (≈ 1 µM) | ≤ 0.063 µg/mL | 1 µg/mL (≈ 2 µM) | 8 µg/mL (≈ 16 µM) | 0.5 µg/mL (≈ 1 µM)
15 | O=C1COc2ccc(N3C[C@H](CCNCc4cccc(-c5cccc(OCC6CC6)c5)c4)OC3=O)nc2N1 [Example 58, 6-((S)-5-{2-[(3′-cyclopropylmethoxy-biphenyl-3-ylmethyl)-amino]-ethyl}-2-oxo-oxazolidin-3-yl)-4H-pyrido[3,2-b][1,4]oxazin-3-one] |  |  |  |  |  | 2 µg/mL (≈ 3.89 µM) | 0.125 µg/mL (≈ 0.243 µM) | 8 µg/mL (≈ 15.5 µM) | 8 µg/mL (≈ 15.5 µM) | 1 µg/mL (≈ 1.94 µM)
16 | COc1ccnc(-c2cccc(CNCC[C@H]3CN(c4ccc5c(n4)NC(=O)CO5)C(=O)O3)c2O)c1 [Example 106, 6-((S)-5-{2-[2-hydroxy-3-(4-methoxy-pyridin-2-yl)-benzylamino]-ethyl}-2-oxo-oxazolidin-3-yl)-4H-pyrido[3,2-b][1,4]oxazin-3-one] |  |  |  |  |  | 0.125 µg/mL (≈ 0.254 µM) | ≤ 0.016 µg/mL | 1 µg/mL (≈ 2.03 µM) | 2 µg/mL (≈ 4.07 µM) | 0.125 µg/mL (≈ 0.254 µM)
